{"source": "paper PMC4871484", "about": "“Functional Green-Tuned Proteorhodopsin from Modern Stromatolites” (PLoS ONE, 2016)", "target": "T1, E17R (E17-PR), green proteorhodopsin (Exiguobacterium sp. S17, UniProt S3FWZ0)", "T1 sequence (S3FWZ0 1-248)": "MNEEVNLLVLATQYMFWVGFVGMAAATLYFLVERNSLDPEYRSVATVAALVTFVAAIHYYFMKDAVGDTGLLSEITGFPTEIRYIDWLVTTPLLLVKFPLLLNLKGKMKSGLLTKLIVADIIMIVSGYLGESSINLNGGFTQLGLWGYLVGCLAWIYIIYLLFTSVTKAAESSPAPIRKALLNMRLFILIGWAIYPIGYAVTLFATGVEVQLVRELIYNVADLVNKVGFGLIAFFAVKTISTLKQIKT", "test": "UV-vis absorption of purified holoprotein; hydroxylamine bleaching to retinal oxime", "assay_type": "binding", "settings": "covalent; Schiff base with lysine; […] HEPES, […] NaCl, […] DDM; room temperature", "data": [{"smiles": "CC1=C(/C=C/C(C)=C/C=C/C(C)=C/C=O)C(C)(C)CCC1", "note": "[retinal]", "values": [{"measurement": "UV-vis absorption of purified holoprotein; hydroxylamine bleaching to retinal ox", "result": "Expression and purification of E17R yielded after purification and retinal addition a protein with λmax"}]}]}
